Literature values in patent publication US11825820B2, “Poly-glutamine androgen receptor knock-in mouse models, reagents and methods” (priority 2017, dated 2023).
Read-outs that look alike come from different tables or passages of the source.

Key:
[1] = system: patients with nonalcoholic steatohepatitis; details: 24 weeks
NASH = details: 30 mg/day
[2] = system: patients with NASH/NAFLD scores of 3 to 8
[3] = 100 mg, 250 mg vs Pioglitazone 45 mg; 28 days

Molecule: Cc1cc(F)c(C(=O)Nc2cccc(-c3nncn3C(C)C)n2)cc1-n1cnc(C2CC2)c1 [selonsertib]
- proportion of patients with a one or more stage reduction in fibrosis ([1]; 6-mg selonsertib group, 8 of 27, 95% CI 14-50): 30%
- proportion of patients with a one or more stage reduction in fibrosis ([1]; 18-mg selonsertib group, 13 of 30, 95% CI 26-63): 43%

Molecule: CCc1ccc(CCOc2ccc(CC3SC(=O)NC3=O)cc2)nc1 (stereo not drawn) [Pioglitazone]
- side effects (NASH): weight gain, edema, bone fractures and increased risk of bladder cancer

Molecule: CSc1ccc(C(=O)/C=C/c2cc(C)c(OC(C)(C)C(=O)O)c(C)c2)cc1 [Elafibranor]
- anti-inflammatory effects ([2]; Phase IIb claims): Anti-inflammatory effects
- insulin sensitivity and glucose homeostasis ([2]; Phase IIb claims): Improved insulin sensitivity and glucose homeostasis
- markers of hepatic dysfunction, including liver enzymes ALT, AST, GGT, ALP ([2]; Phase IIb claims): Improvement in markers of hepatic dysfunction
- plasma lipids (triglyceride, LDL-C, HDL-C) ([2]; Phase IIb claims): reduction in triglyceride and LDL-C and increased HDL-C levels
- RR, Elafibranor vs placebo ([2]; Phase IIb, after withdrawal of NAS <4 patients): 1.9
- positive result, Elafibranor vs placebo ([2]; Phase IIb, after withdrawal of NAS <4 patients, placebo 12.7%, p=0.046): 22.4%
- safety profile ([2]; clinical trials, toxicology studies up to two-year carcinogenicity): good safety profile with no unwanted side effects
- statistical significance of results across the entire study population ([2]; entire study population incl. NAS <4 patients): prevented Elafibranor from having statistically significant results
- histological parameters NASH (steatosis, inflammation, fibrosis) (animal models of NASH): Beneficial effects on histological parameters NASH

Molecule: COc1cccc(C(=O)COc2ccc(CC3SC(=O)[N-]C3=O)cc2)c1.[K+] (stereo not drawn) [MSCD-0602K]
- adiponectin levels vs Pioglitazone [3]: equivalent to Pioglitazone
- overall glucose control vs Pioglitazone [3]: equivalent to Pioglitazone

B1: simtuzumab (antibody, chains of the INN, looked up, V domains shown)
VH: QVQLVQSGAEVKKPGASVKVSCKASGYAFTYYLIEWVRQAPGQGLEWIGVINPGSGGTNYNEKFKGRATITADKSTSTAYMELSSLRSEDTAVYFCARNWMNFDYWGQGTTVTVSS
VL: DIVMTQTPLSLSVTPGQPASISCRSSKSLLHSNGNTYLYWFLQKPGQSPQFLIYRMSNLASGVPDRFSGSGSGTDFTLKISRVEAEDVGVYYCMQHLEYPYTFGGGTKVEIK
notes: comparator group (simtuzumab-alone) in the selonsertib Phase 2 study
- proportion of patients with a one or more stage reduction in fibrosis ([1]; simtuzumab-alone group, 2 of 10, 95% CI 3-56): 20%
